# Assay results from US20240335408A1, “Soluble Guanylate Cyclase Activators for Cancer and Fibrosis Treatment” (University of Pittsburgh - of the Commonwealth System of …, priority 2023, published 2024).
# Key:
# [1] = test system: luciferase (luc) expressing TRAMP-C1 cells; assay: TRAMP-C1 cell survival after single dose irradiation (bioluminescence, 96-well); type: cell-based, mouse; details: for survival (% of bioluminescence before irradiation): single 8 Gy dose, drugs from 4 days after irradiation for 7 days, cinaciguat, p62 inducer, enzalutamide 1 μM, 8-bromo-cGMP 100 μM, DETA-NONOate 100 M (so in the source); for effect on irradiation-induced cell death: single dose 8 Gy irradiation, TRAMP-C1 cells, preliminary studies
# Protocol: FIG. 4. The effect of single-dose and fractionated irradiation on TRAMP-C1 cell survival. A) Cells were plated at 5,000 cells/well in 96-well plates and subjected to single dose irradiation of 0 or 8 Gy. Four days following irradiation cells were treated with cinaciguat (1 μM), p62 inducer (1 μM), enzalutamide (1 μM), DETA-NONOate ([…]), 8-bromo-cGMP (100 μM) or vehicle (0.1% DMSO) for 1 week. Bioluminescence was measured before and after irradiation, and following drug treatment. […] B) Determination of 6 Gy as the optimal 5-day fractionated radiation dose based on cell survival.
# Effect of drugs targeting NO·-cGMP pathway, mitophagy and AR signaling on TRAMP-C1 survival after single dose irradiation and determination of optimal fractionated irradiation protocol. To assess whether promoting NO·-cGMP signaling, induction of mitophagy or AR inhibition would enhance the effect of radiation treatment, the effect of these different drugs on cultured luciferase (luc) expressing TRAMP-C1 cells was examined in a 96-well plate format. Bioluminescence was assessed before irradiation after which the cells were exposed to a single 8 Gy radiation dose. Four days after irradiation cells were treated with the different drugs for a further 7 days. […] To determine the optimal fractionated irradiation dosing protocol, fractionated irradiation protocols were examined in cultured cells over a 5-day period. […] Therefore, 6 Gy per day for 5 days can be used as a dosing protocol.
# Cell culture. Luciferase expressing TRAMP-C1 cells may be maintained in DMEM supplemented with 10% FBS, 1% PenStrep, 5 μg/ml insulin and 10 nM dehydroisoandrosterone and used at 10-15 passages. For experiments in Examples 1-3 cells may be plated at 5,000 cells/well in 96-well plates.
# Bioluminescence in vitro and in vivo imaging. Cells may be treated with 150 μM luciferin D and immediately placed in Tecan SPECTRA Fluor Plus plate reader for bioluminescence measurement. Readings may be averaged for each group of cells (n≥ 8) and background (empty well readings) subtracted. Mice may be anesthetized with avertin (300 mg/kg, IP), depilated and injected with 150 mg/kg luciferin D, IP. They may be […] in a BioRad ChemiDoc MP imaging system in the supine position. Bioluminescence may be imaged for 600 sec using the Chemi Hi sensitivity protocol, intensity expressed colorimetrically, superimposed over images of the mice.
# [2] = test system: bladder of CyB5R3 smooth muscle conditional knockout mice; details: acute intraperitoneal injection; cited from earlier work
# Bcl-2/BAX ratio = details: aged mice, reversal of benign prostatic hyperplasia; previously demonstrated; cited from earlier work
# [3] = Blood pressure and heart rate under cinaciguat treatment; type: in vivo, mice
# [4] = test system: mouse bladder with chronic radiation cystitis; assay: Chronic radiation cystitis in mice: cystometry (CMG) and bladder collagen staining; type: in vivo
# Text: FIG. 12 Effects of cinaciguat on a mouse bladder with chronic radiation cystitis. A) Cystometry (CMG), non-irradiated mouse. B) CMG, 9 weeks following bladder irradiation (10 Gy). C) CMG, irradiation+daily gavage for 2 weeks with cinaciguat. D) Active and (E-F) passive length-tensions from irradiated+vehicle (red) vs. irradiated+cinaciguat (blue) bladder strips. G-I) Bladder cross-sections stained with Verhoeff Van Gieson solution; collagen is stained pink. J) Collagen, % area of the bladder wall, N=4. K) bladder weight in mg, control vs. irradiated (irr)>9 wks; N=5 ea.
# Furthermore, irradiation decreases bladder weight by approximately 30% that could be attributed to muscle atrophy (FIG. 12 (K)).
# [5] = given via i.v. drip; cited from earlier work
# [6] = test system: sGCα1, Bcl-2/BAX and NF-κβ; assay: Immunolocalization of sGCα1, Bcl-2/BAX and NF-κβ in orthotopic TRAMP-C1 tumor sections; type: in vivo, mouse; details: fractionated irradiation plus 1 mg/kg/day for two weeks
# Protocol: FIGS. 7A and 7B. Alterations in the sGCα1, Bcl-2/BAX ratio and NF-κβ nuclear localization in prostate tumors from non-irradiated mice, and irradiated mice treated with cinaciguat or p62 inducer based on immunolabeling intensity. A)-C) sGC α1 immunolabeling in A) non-irradiated orthotopic TRAMP-C1 tumors. B) orthotopic tumor from mouse receiving fractionated irradiation followed by two weeks of cinaciguat (1 mg/kg/day) treatment. C) orthotopic tumor from mouse receiving fractionated irradiation followed by two weeks of p62 mitophagy inducer (1 mg/kg/day) treatment. D)-F) Immunolabeling for Bcl-2 of D) non-irradiated orthotopic TRAMP-C1 tumor. E) orthotopic tumor from mouse receiving fractionated irradiation and cinaciguat treatment. F) orthotopic tumor from mouse receiving fractionated irradiation and p62 mitophagy inducer treatment. G-I) Immunolabeling for NF-κβ of G) non-irradiated orthotopic TRAMP-C1 tumor. H) orthotopic tumor from mouse receiving fractionated irradiation and cinaciguat treatment. I) orthotopic tumor of mouse receiving fractionated irradiation and p62 mitophagy inducer treatment. J) Bar chart for ratio of sGCα1 positive area to total cell area. K) Bar chart of Bcl-2 positive staining versus BAX positive staining in sequential sections from each group. […] Green fluorescence—immunolabeling, Blue—DAPI, nuclei. […]
# [7] = test system: orthotopic TRAMP-C1 tumors; assay: Orthotopic TRAMP-C1 tumors after fractionated irradiation, prostate tissue weight; type: in vivo, C57BI/6 mice; details: 2 Gy fractions x 5 days; after one week osmotic pump 1 mg/kg/day for 14 days; vs irradiation alone
# Protocol: FIG. 5. TRAMP-C1 orthotopic tumors and the effects of irradiation. A) TRAMP-C1 cells (10^7 cells/100 μl) were injected bilaterally into the ventrolateral prostatic lobes to create the orthotopic tumor mouse model. […] B) TRAMP-C1 tumor in a non-irradiated mouse 5 weeks after cell injection. C) Tumor following fractionated irradiation (2 Gy×5 days, starting 4 weeks post injection). D) Prostate wet weight in control, non-irradiated and irradiated tumor bearing animals.
# FIG. 6. Bioluminescence imaging of prostate tumors and prostate size assessment following treatments. A) Image of colorimetrically expressed bioluminescence intensity superimposed over the mouse image. B) Prostates were excised from non-injected control, injected non-irradiated and injected irradiated (2 Gy×5 days) mice with or without treatments (P62 inducer or cinaciguat, 1 mg/kg/day for 2 weeks by ALZET pumps starting 1 week post irradiation). C) Timeline of tumor growth based on preliminary data.
# Development of orthotopic TRAMP-C1 tumors in C57BI/6 mice and the effect of fractionated irradiation. […] At the conclusion of the treatment, tumor weights were evaluated. Without any intervention (drug or irradiation), there was a significant increase in tumor mass evaluated as total prostate tissue weight (FIG. 6 (B)).
structure (smiles),measurement,setting,value
Nc1nc2c(nc(Br)n2[C@@H]2O[C@@H]3COP(=O)(O)O[C@H]3[C@H]2O)c(=O)[nH]1 [8-bromo-cGMP],survival (% of bioluminescence before irradiation),[1],65±7%
same,effect on irradiation-induced cell death,[1],did not enhance irradiation-induced cell death
NCCN(CCN)/[N+]([O-])=N/O [DETA-NoNoate],survival (% of bioluminescence before irradiation),[1],62±13%
same,effect on irradiation-induced cell death,[1]; listed as DETA NoNoate,not
same,effect on irradiation-induced cell death,[1]; listed as DETA-NONOate,did not enhance irradiation-induced cell death
"O=C(O)CCCCN(CCc1ccccc1OCc1ccc(CCc2ccccc2)cc1)Cc1ccc(C(=O)O)cc1 [cinaciguat, 4-({(4-carboxybutyl)[2-(2-{[4-(2-phenylethyl)phenyl]methoxy}phenyl)ethyl]amino}methyl) benzoic acid]",intercontractile interval (ICI),[2],increased ICI
same,non-voiding contractions,[2],eliminated non-voiding contractions
same,Bcl-2/BAX ratio,Bcl-2/BAX ratio,decreasing the Bcl-2/BAX ratio
same,effect on blood pressure,"[3]; infused post irradiation 0.1-1 mg/kg/day for 28 days via osmotic pumps, preliminary data",without adversely affecting blood pressure
same,effects on blood pressure and heart rate,[3]; once-a-day oral 10 mg/kg,only transient effects on blood pressure and heart rate
same,bladder wall structure (collagen staining),"[4]; chronically irradiated mice, Verhoeff Van Gieson staining",bladder wall structure similar to non-irradiated controls
same,CMG profile,"[4]; daily gavage 10 mg/kg/day starting 7 weeks post irradiation (10 Gy), 2 weeks",normalized the CMG profile
same,collagen content of bladder wall,[4]; doubling of collagen 9 weeks post irradiation,reversed
same,blood pressure effect (hypotension),[5],induced hypotension
same,"sGCα1, Bcl-2/BAX and NF-κβ immunolabeling in tumor",[6],all three markers were reduced
same,tumor mass evaluated as total prostate tissue weight,[7],marked decrease compared to irradiation alone
same,survival (% of bioluminescence before irradiation),[1],31±13%
same,effect on irradiation-induced cell death,[1],potentiated
same,effect on irradiation-induced cell death,[1]; listed as Cinaciguat,most effective in promoting irradiation-induced tumor cell death
CNC(=O)c1ccc(N2C(=S)N(c3ccc(C#N)c(C(F)(F)F)c3)C(=O)C2(C)C)cc1F [enzalutamide],survival (% of bioluminescence before irradiation),[1],80±11%
same,effect on irradiation-induced cell death,[1],protected the cells and not
